# Entries after “also recorded” stand apart in the source; their conditions may differ. Positions of bridges follow the written chain, without caps; N, C: chain ends. Non-standard residues stand in square brackets, D forms with d. Residues, ends and D or L forms follow the SMILES beside them. Chains are numbered I, II in the order given. *: point of attachment. Stearoyl = CCCCCCCCCCCCCCCCCC(=O)*; Dab = NCC[C@H](N)C(=O)O
# How the values were obtained:
# CHO-K1 cells [1] = test: Delivery of reporter mRNA with CPPs in cell culture (luciferase luminescence 24 h post-transfection); type: cell-based; settings: for Average RLU/mg (reporter levels post-transfection of mRNA): firefly luciferase mRNA, 0.1 μg per well, charge ratio 3:1, serum containing media, 24 h, RLU normalised to total protein in lysate; for Efficiency of mRNA transfection/delivery: FIG. 1 / Table 2, cell culture
# How it was run: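 CHO-K1 cells (10,000/well) transfected in 10% FBS DMEM with 0.1 μg firefly luciferase mRNA complexed with CPP at 3:1 charge ratio (peptide excess). Luminescence read in lysates 24 h later, normalised to BCA total protein (RLU/mg).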
# CHO-K1 cells [2] = test: Comparison of reporter levels in cells post-transfection of pDNA or mRNA delivered by CPPs; type: cell-based; settings: in words, FIG. 2
# Experimental: FIG. 2: Comparison of reporter levels in cells post-transfection of pDNA or mRNA delivered by CPPs (P14, NF55 and NF71; relative light units normalised to total protein in the cell lysate (RLU/mg)). Naked mRNA and untreated cells (UT) were used as controls.
# Adherent CHO-K1 cells were grown in Dulbecco's Modified Eagle's Medium (DMEM), which were supplemented with 0.1 mM non-essential amino acids, 1.0 mM sodium pyruvate, 100 U/ml penicillin, and […]. For complete media, 10% (final) fetal bovine serum (FBS) was added. Cells were maintained in a humidified incubator at 37 °C, 5% CO2. Cell viability and confluence was assessed daily and the cell density was reduced regularly. For cell counting, we used the CytoSMART cell counter accompanied by 0.4% trypan blue staining prior measurement. The multi-well plates with cell cultures used for experiments were incubated in a humidified incubator at 37 °C, 5% CO2.
# For in vitro experiments 0.1 μg of nucleic acid (plasmid DNA (pDNA) or mRNA) was used per 96-well plate well. For CPP/NA complex formation, the diluted NA was mixed with CPP in water. Complexes were formed based on the theoretical charge ratio (CR) of positive charges from the peptide in excess to the negative charges from nucleic acid backbone, at charge ratio 3:1 with peptide in excess. […]
# For reporter luminescence (expressed from firefly luciferase encoding mRNA or plasmid pDNA) assessment in adherent cell culture, 10,000 cells per 96-well plate well were seeded in 100 μl of media one day prior to transfection. […]
# 24 hours post-transfection, the media was aspirated, cells were washed with 1×PBS, and 30 μl of lysis buffer (0.1% Triton X100 in 1×PBS) was added. […] From the lysate, 20 μl was transferred to a black frame white well 96-well plate for luminescence measurement after addition of substrate luciferin (PerkinElmer) in buffer. The luminescence signal was detected with GloMax® 96 microplate luminometer equipped with GloMax® 1.9.2 software (Promega). […]
# [3] = test system: liver, spleen, lung, kidney, heart and thymus of Balb/c mice; test: Biodistribution of reporter levels post-transfection of mRNA or pDNA with CPPs in vivo (tissue homogenate); settings: for Organ distribution of mRNA delivery: mRNA cargo
# Experimental: FIG. 3: Biodistribution of reporter levels post-transfection of mRNA or pDNA with NFs or PFs CPPs in vivo. Reporter gene product levels were evaluated from the whole tissue homogenates collected post mortem. Results are shown as the fold change to mRNA or pDNA treated mice.
# (§1) The transfection complexes (CPP/mRNA) were formed using 10 μg of mRNA mixed with each peptide at indicated charge ratios (CRs) in MQ water in a final volume of 100 μl. CRs were calculated theoretically and account for both the positive charges of the peptide and negative charges of the nucleic acid. The transfection complexes (CPP/mRNA and CPP/pDNA) were formed using 50 μg of mRNA mixed with each peptide at indicated charge ratios (CRs) in MQ water in a final volume of 168 μl. The complexes were incubated for 30 minutes at room temperature and then mixed with equal volume of 10% glucose (resulting in a final solution of 5% glucose in a total volume of 200 μl for 10 μg dose groups and 336 μl for 50 μg dose groups) and immediately injected intravenously via the tail vein.
# The reporter gene (luciferase) expression levels were evaluated from the tissue homogenate post mortem 16-24 h after single injection.
# In order to determine to which organs in vivo mRNAs may be delivered to with NickFect or PepFect CPPs, mRNA complexes with NF55, NF71 and PF14 were formed and injected through the tail vein of Balb/c mice (FIG. 3A). The organs were harvested 24 hours after the single injection and reporter signal was measured from whole tissue homogenates. The biodistribution of reporter levels was measured in liver, spleen, lung, kidney, heart and thymus.
# In order to compare the biodistribution profiles between harvested organs when using either mRNA or pDNA as cargo, NF424 was used to transfect these 2 types of nucleic acids in vivo (FIG. 3B and Table 4).
# [4] = in words; previously reported; cited from earlier work
# [5] = in words; previously reported; cited from earlier work; remark: listed apart in the source
# spleen of BALB/c mice = test: In vivo delivery of mRNA with CPPs - reporter levels in the spleen; settings: for Reporter levels in the spleen (RLU): mRNA, tail vein injection, spleens harvested 16 hours after single injection, whole tissue homogenate
# How it was run: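 CPP/mRNA complexes were formed at the indicated charge ratios in water for 30 min at room temperature, using 10 or 50 μg mRNA, then brought to 5% glucose. Complexes were injected intravenously via the tail vein into BALB/c mice. Spleens were harvested 16 h after the single injection, and luciferase (RLU) was measured in whole-tissue homogenate.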
# BALB/c mice = test: Live animal imaging 1-48 hours post administration of NF424/mRNA or NF424/pDNA complexes; type: in vivo
# Experimental: FIG. 4: Live animal imaging 1-48 hours post administration of NF424/mRNA or NF424/pDNA complexes. Reporter gene product levels were evaluated with full body imager at 1 h, 6 h, 12 h, 24 h, and 48 h post-injection.
# as §1
# 100 μl of luciferin (PerkinElmer), at a concentration of 15 mg/ml, was intraperitoneally injected into the mice. After 10 min, the mice were imaged using the In Vivo Imaging System (IVIS Lumina II, PerkinElmer).
# Live animal imaging was used to track the timepoints of mRNA and pDNA transfection with NFs (FIG. 4). The CPP used was NF424, complexes were formed in parallel with mRNA or pDNA and injected through the tail vein of BALB/c mice. The reporter gene expression levels were evaluated with full body imager at 1 h, 6 h, 12 h, 24 h and 48 h post-injection.
# [6] = mRNA delivery, i.v. tail vein, 24 h after single injection, FIG. 3: fold change to mRNA or pDNA treated mice
# [7] = NF424 delivery of mRNA, fold change to mRNA treated mice
# [8] = NF424 delivery of pDNA, fold change to pDNA treated mice
compound,measurement,setting,value
NF71: SEQ ID NO: 14; HHYHHGO*ILLKALKALAKAIL; control/comparator construct,Average RLU/mg (reporter levels post-transfection of mRNA),CHO-K1 cells [1],3 505 987 RLU/mg
same,Efficiency of mRNA transfection/delivery,CHO-K1 cells [1]; in words,not efficient for mRNA delivery
same,Efficiency of mRNA transfection (parallel pDNA/mRNA comparison),CHO-K1 cells [2]; mRNA cargo,not effective tools for mRNA transfection/delivery; also recorded: not an efficient delivery vector for mRNA
same,Efficiency of pDNA transfection (parallel pDNA/mRNA comparison),CHO-K1 cells [2]; pDNA cargo,very efficient transfection reagents for pDNA delivery
same,Organ distribution of mRNA delivery,[3]; in words,"delivered mRNA mostly into the spleen, with very low transfection levels seen in other organs"
same,"Reporter level, Liver",[3]; [6],8
same,"Reporter level, Lung",[3]; [6],6
same,"Reporter level, Spleen",[3]; [6],124
same,siRNA delivery efficiency,[4],"very efficient for siRNA and miRNA delivery; also recorded: very efficient for siRNA and miRNA transfections; also recorded: the most efficient, even more efficient than NF55"
same,miRNA delivery efficiency,[5],very efficient for siRNA and miRNA delivery; also recorded: very efficient for siRNA and miRNA transfections; also recorded: the most efficient in vivo
NF70: SEQ ID NO: 13; HHHHYHHGO*ILLKALKALAKAIL; control/comparator construct [reference compound],Average RLU/mg (reporter levels post-transfection of mRNA),CHO-K1 cells [1],919 720 RLU/mg
same,Efficiency of mRNA transfection/delivery,CHO-K1 cells [1]; in words,not efficient for mRNA delivery
same,Reporter levels in the spleen (RLU),spleen of BALB/c mice,8 000 RLU
same,siRNA delivery efficiency,[4],"very efficient for siRNA and miRNA delivery; also recorded: the most efficient, even more efficient than NF55"
same,miRNA delivery efficiency,[5],very efficient for siRNA and miRNA delivery
CCCCCCCCCCCCCCCCCC(=O)N[C@@H](C)C(=O)NCC(=O)N[C@@H](Cc1ccc(O)cc1)C(=O)N[C@@H](CC(C)C)C(=O)N[C@@H](CC(C)C)C(=O)NCC(=O)NCC[C@H](N)C(=O)N[C@@H](CC(C)C)C(=O)N[C@@H](CCCCN)C(=O)N[C@@H](C)C(=O)N[C@@H](CC(C)C)C(=O)N[C@@H](C)C(=O)N[C@@H](C)C(=O)N[C@@H](CC(C)C)C(=O)N[C@@H](C)C(=O)N[C@@H](CCCCN)C(=O)N[C@@H](C)C(=O)N[C@H](C(=O)N[C@@H](CC(C)C)C(N)=O)[C@@H](C)CC [NF424] (I: H-[Dab]LKALAALAKAIL-NH2 / II: Stearoyl-AGYLLG; amide I:1-II:C),Average RLU/mg (reporter levels post-transfection of mRNA),CHO-K1 cells [1],2 590 000 000 RLU/mg
same,Efficiency of mRNA transfection/delivery,CHO-K1 cells [1]; in words,the most efficient
same,Delivery of mRNA compared to NF54,"CHO-K1 cells [1]; in words, comparator NF54",good improvement in delivery of cargo such as mRNA over NF54
same,Delivery of mRNA compared to NF55,"CHO-K1 cells [1]; in words, comparator NF55",significantly improved delivery of mRNA over NF55
same,"Fold/mRNA, Liver",[3]; [7],9 Fold
same,"Fold/mRNA, Lung",[3]; [7],98 Fold
same,"Fold/mRNA, Spleen",[3]; [7],8 330 Fold
same,"Fold/pDNA, Liver",[3]; [8],2 Fold
same,"Fold/pDNA, Lung",[3]; [8],11 Fold
same,"Fold/pDNA, Spleen",[3]; [8],5 Fold
same,Organ distribution of mRNA delivery,[3]; in words,the highest expression levels were found in the spleen of treated mice
same,Organ distribution of pDNA delivery,"[3]; in words, pDNA cargo",the main expression was found in lungs and liver
same,Time at which reporter signal was detected in the spleens,"BALB/c mice; NF424/mRNA complexes, 10 μg mRNA, tail vein",≤ 1 h
same,Time at which reporter signal was visible in the lungs,"BALB/c mice; NF424/pDNA complexes, 50 μg pDNA, tail vein",6 h
same,"Detected signal, mRNA vs pDNA","BALB/c mice; in words, 10 μg mRNA vs 50 μg pDNA",the detected signal was much higher from mRNA
same,Main organ of mRNA delivery (live imaging),"BALB/c mice; in words, mRNA cargo",delivers mRNA mostly to the spleen
same,Main organ of pDNA delivery (live imaging),"BALB/c mice; in words, pDNA cargo",pDNA to the lungs
same,Efficacy of mRNA delivery into the spleen in vivo,"spleen of BALB/c mice; in words, FIG. 5 / Table 5",highest reporter levels after mRNA delivery into the spleen in vivo
same,Delivery of mRNA in vivo compared to NF54 and/or NF55,"spleen of BALB/c mice; in words, comparator NF54 and/or NF55",significantly improved delivery of mRNA in vivo over both NF54 and NF55
same,Reporter levels in the spleen (RLU),spleen of BALB/c mice,427 566 RLU

# — patent publication US20260355330A1, “CELL PENETRATING PEPTIDES AND USES THEREOF” (VECTIOPEP OÜ, priority 2022, published 2026)
